Values joined by “and” are separate entries in the source; they are usually repeats but may differ in a detail not shown here. Equal entries are not always repeated.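 A five-concentration, 48-hour dose response in 96-well plates underlies each endpoint, interpolated linearly between surrounding concentrations. GI50 is the concentration that inhibits growth by half. TGI denotes the concentration required for complete inhibition of growth.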
How the values were obtained:
Experiment in all cases: growth of human tumour cells (NCI), 48 h
HCT-15 colon = test system: HCT-15 colon
A549 NSCLC = test system: A549 NSCLC
HOP-62 NSCLC = test system: HOP-62 NSCLC
CAKI-1 renal = test system: CAKI-1 renal
HS 578T breast = test system: HS 578T breast
SNB-75 CNS = test system: SNB-75 CNS
EKVX NSCLC = test system: EKVX NSCLC
OVCAR-4 ovarian = test system: OVCAR-4 ovarian

Row | Structure (SMILES) | GI50 (HCT-15 colon) | TGI (HCT-15 colon) | GI50 (A549 NSCLC) | TGI (A549 NSCLC) | GI50 (HOP-62 NSCLC) | TGI (HOP-62 NSCLC) | GI50 (CAKI-1 renal) | TGI (CAKI-1 renal) [µM] | GI50 (HS 578T breast) | TGI (HS 578T breast) | GI50 (SNB-75 CNS) | TGI (SNB-75 CNS) | GI50 (EKVX NSCLC) [µM] | TGI (EKVX NSCLC) [µM] | GI50 (OVCAR-4 ovarian) | TGI (OVCAR-4 ovarian)
1 | OC(COc1cccc2ccccc12)CN1CCN(c2ccccc2Cl)CC1 (stereo not given) | 12.8 µM | 28.6 µM | 18.2 µM | 35.4 µM | 13.7 µM | 27.3 µM | 7.23 µM | 22.7 | 15.8 µM | 58 µM | 11.2 µM | 24.7 µM | 12.9 | 31.7 | 12.6 µM | 25.8 µM
2 | O=C(CCl)Nc1cc(O)c2c(c1)C(=O)c1cccc(O)c1C2=O | 0.62 µM | 2.01 µM | 7.44 µM | 48.5 µM | 1.71 µM | 3.38 µM | 1.56 µM | 2.93 | 2.46 µM | 10.6 µM | 1.21 µM | 3.2 µM | 1.77 | 4.52 | 1.96 µM | 7.23 µM
3 | COc1ccc2c(c1)CC[C@@H]1[C@@H]2CC[C@]2(C)C=C(/C=C/C(=O)c3ccccc3)C[C@@H]12 | 17.4 µM | 34.3 µM | 18.5 µM | 40.2 µM | 16.9 µM | 31.2 µM | 20.3 µM | 38.3 | 19 µM | 49 µM | 12.2 µM | 25.2 µM | 17.7 | 32.3 | 16.2 µM | 31.6 µM
4 | C1CC[N-]CC1.CC(=N\O)/C(C)=N/O.CC(=N\O)/C(C)=N/O.[CH2-]CCN1CCOCC1.[Co+2] | > 100 µM | > 100 µM | > 100 µM | > 100 µM | > 100 µM | > 100 µM | > 100 µM | > 100 | > 100 µM | > 100 µM | > 100 µM | > 100 µM | > 100 | > 100 | > 100 µM | > 100 µM
5 | COc1cc(/C=N\O)nc(-c2ccccn2)c1 |  | > 100 µM |  | > 100 µM |  |  |  | 28 |  | > 100 µM |  | > 51.6 µM |  | 23.5 |  | > 100 µM
6 | O=C1c2ccn(CCCCN3CCC(O)CC3)c2C(=O)c2c1c(O)c1ccccc1c2O | 2.68 µM | 8.83 µM | 26.2 µM | 68.9 µM | 16.3 µM | 34.9 µM | 13.9 µM | 43.7 | 29.2 µM | > 83.8 µM | 42.6 µM | > 61.2 µM | 14.5 | 46.5 | 17.9 µM | > 64.4 µM
7 | Cc1cc(O)c(C(c2ccncc2)c2c(O)cc(C)[nH]c2=O)c(=O)[nH]1 |  | > 100 µM |  | > 100 µM |  | > 100 µM |  | > 100 |  | > 100 µM |  |  |  | > 100 |  | > 100 µM
8 | Cc1ccc2c(c1)C(=O)c1c-2n(CCCN=[N+]=[N-])c(=O)c2cc([N+](=O)[O-])ccc12 | > 100 µM | > 100 µM | 97.8 µM | > 100 µM | 71.7 µM | > 100 µM | 53.9 µM | > 100 | > 100 µM | > 100 µM | 1.26 µM | 58.6 µM | > 100 | > 100 | 14 µM | 74.2 µM
9 | Oc1c(CN2CCOCC2)cc(COCc2ccccc2)c2cccnc12 | 0.286 µM | 13.3 µM | 4.22 µM | 64 µM | 1.48 µM | > 100 µM | 0.555 µM | > 100 | 19.4 µM | > 100 µM | 10.4 µM | > 100 µM | 2.88 | > 100 | 1.97 µM | > 100 µM
10 | CC(=O)N1CCN(CCOc2ccc(C3CCN(C4=Nn5c(nnc5C(F)(F)F)CC4)CC3)cc2)CC1 | 14 µM | > 100 µM | 41.4 µM | > 100 µM | 11.5 µM | > 100 µM | 3.27 µM | > 100 | 5.43 µM | > 100 µM | 3.12 µM | > 100 µM | 14.7 | > 100 | 8.55 µM | > 100 µM
11 | O=C(c1ccccc1)C1C(C(=O)c2ccccc2)C(c2ccccc2)N(c2ccccc2)C1c1ccccc1 (stereo not given) |  | > 100 µM |  | > 100 µM |  | > 100 µM |  | > 100 |  | > 100 µM |  |  |  | > 100 |  | 
12 | CCc1nc(-n2c(-c3ccccc3)nc3ccccc3c2=O)nc(N)c1-c1ccc(Cl)cc1 | 6.43 µM | > 100 µM | 4.98 µM | > 100 µM | 14.7 µM | > 100 µM | 14.7 µM | 41 | 34.8 µM | > 100 µM | 48.2 µM | > 100 µM | > 100 | > 100 | > 100 µM | > 100 µM
13 | CCCCCc1c(C)[nH]c(/C=C2\N=C(c3ccc[nH]3)C=C2OCc2ccccc2)c1C | 0.0368 µM and 0.0246 µM | 0.279 µM and 0.15 µM | 0.0328 µM and 0.0283 µM | 0.381 µM and 0.0957 µM | 0.164 µM and 0.0925 µM | 1.89 µM and 1.37 µM | 0.0498 µM and 0.0269 µM |  | 0.0962 µM and 0.0277 µM | 0.697 µM and 0.238 µM | 0.0803 µM and 0.0214 µM | 0.577 µM and 0.0825 µM |  |  | 0.0463 µM and 0.0163 µM | 1.29 µM and 1.24 µM
14 | CCOc1cc(C(C)(C)C)ccc1C1=N[C@@](C)(c2ccc(Cl)cc2)[C@@](C)(c2ccc(Cl)cc2)N1C(=O)N1CCN(CCS(C)(=O)=O)CC1 | 2.27 µM | 5.79 µM | 0.975 µM | 5.31 µM | 2.86 µM | 8.57 µM | 0.81 µM | 6.48 | 4.1 µM | 23.9 µM | 2.51 µM | 14.9 µM |  |  | 2.68 µM | 38.3 µM
15 | O=C1c2ccccc2-c2c1c1ccccc1c(=O)n2-c1ccccc1 |  | > 100 µM |  | > 100 µM |  | 14.9 µM |  | 34.7 |  | > 87.4 µM |  | 37.1 µM |  | > 100 |  | 19.2 µM
16 | N#Cc1c2c(c(-c3cccs3)n(C3OC(CO)C(O)C(O)C3O)c1=S)CCc1ccccc1-2 (stereo not given) |  | > 100 µM | 20.9 µM and > 85.1 µM | > 100 µM | 14.9 µM and 38.5 µM | > 100 µM |  | > 100 |  | > 100 µM | 3.49 µM and 1.55 µM | > 29.3 µM and 12.7 µM |  | > 100 |  | > 100 µM

From PubChem BioAssay (NCI)
